Data reported in patent US20100331333A1, “Imidazo [1,2-B] Pyridazine Compounds” (Wyeth LLC, priority 2007, published 2010).

Experiments:
human LXRβ = target: T1, human LXRβ (Homo sapiens, UniProt P55055); assay: Ligand-binding test procedure for human LXRβ; conditions: 3H T0901317 tracer; biotinylated hLXRβ from E. coli extract
T1 construct: biotin (biotinylated); made in house; host or cells: E. coli
T1 sequence (P55055 1-460): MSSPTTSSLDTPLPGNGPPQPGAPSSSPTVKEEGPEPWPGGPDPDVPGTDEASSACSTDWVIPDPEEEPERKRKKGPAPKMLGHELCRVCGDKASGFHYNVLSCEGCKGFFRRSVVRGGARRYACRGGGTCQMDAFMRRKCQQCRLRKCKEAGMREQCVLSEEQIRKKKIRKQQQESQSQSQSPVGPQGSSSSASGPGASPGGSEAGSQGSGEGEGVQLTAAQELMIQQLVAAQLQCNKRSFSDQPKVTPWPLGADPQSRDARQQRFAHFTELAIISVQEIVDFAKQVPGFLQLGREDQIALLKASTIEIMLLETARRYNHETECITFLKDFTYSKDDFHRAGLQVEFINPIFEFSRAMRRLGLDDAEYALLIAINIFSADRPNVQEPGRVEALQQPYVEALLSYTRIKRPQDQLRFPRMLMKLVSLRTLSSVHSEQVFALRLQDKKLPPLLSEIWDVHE
Description: IV. Ligand-Binding Test Procedure for Human LXRβ.
(§1) Buffer: 100 mM KCl, 100 mM TRIS (pH 7.4 at +4° C.), 8.6% glycerol, 0.1 mM PMSF*, 2 mM MTG*, 0.2% CHAPS (* not used in wash buffer)
Receptor source: E. coli extract from cells expressing biotinylated hLXRβ. Extract was made in a similar buffer as above, but with 50 mM TRIS.
(§2) Washed streptavidin and coated flash plates with wash buffer. Diluted receptor extract to give Bmax ˜4000 cpm and add to the wells. Wrapped the plates in aluminum foil and stored them at +4° C. over night.
Made a dilution series in DMSO of the test ligands. Made a 5 nM solution of the radioactive tracer in buffer. Mixed 250 μl diluted tracer with 5 μl of the test ligand from each concentration of the dilution series. Washed the receptor-coated flash plates. Added 200 μl per well of the ligand/radiolabel mixture to the receptor-coated flash plates. Wrapped the plates in aluminum foil and incubate at +4° C. over night.
(§3) Aspirated wells, and wash the flashed plates. Sealed the plate. Measured the remaining radioactivity in the plate.

human LXRα = target: T2, human LXRα (Homo sapiens, UniProt Q13133); assay: Ligand-binding test procedure for human LXRα; conditions: 3H T0901317 tracer; biotinylated hLXRα from E. coli extract
T2 construct: biotin (biotinylated); made in house; host or cells: E. coli
T2 sequence (Q13133 1-447): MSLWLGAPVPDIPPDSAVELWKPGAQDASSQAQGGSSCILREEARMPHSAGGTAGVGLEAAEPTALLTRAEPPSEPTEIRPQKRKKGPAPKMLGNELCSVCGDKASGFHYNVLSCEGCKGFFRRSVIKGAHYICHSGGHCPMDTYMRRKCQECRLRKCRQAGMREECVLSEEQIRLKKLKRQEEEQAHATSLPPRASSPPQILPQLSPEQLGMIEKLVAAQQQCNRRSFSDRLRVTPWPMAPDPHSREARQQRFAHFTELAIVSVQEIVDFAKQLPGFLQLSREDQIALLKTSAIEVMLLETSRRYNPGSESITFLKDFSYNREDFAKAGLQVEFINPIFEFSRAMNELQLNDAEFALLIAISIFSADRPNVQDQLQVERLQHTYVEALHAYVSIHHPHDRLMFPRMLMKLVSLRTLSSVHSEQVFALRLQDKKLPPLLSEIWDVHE
Description: II. Ligand-Binding Test Procedure for Human LXRα.
as §1
Receptor source: E. coli extract from cells expressing biotinylated hLXRα. Extract was made in a similar buffer as above, but with 50 mM TRIS.
as §2
Made a dilution series in DMSO of the test ligands. Made a 5 nM solution of the radioactive tracer in buffer. Mixed 250 μl diluted tracer with 5 μl of the test ligand from each concentration of the dilution series.
Washed the receptor-coated flash plates.
Added 200 μl per well of the ligand/radiolabel mixture to the receptor-coated flash plates. Wrapped the plates in aluminum foil and incubate at +4° C. over night.
as §3

ABCA1 gene = assay: Quantitative analysis of ABCA1 gene regulation in THP-1 cells; assay type: cell-based; conditions: Gene regulation by LXR (human), differentiated THP-1 cells; for EC50: 18 hrs, ABCA1 mRNA by real-time PCR; for Agonism ABCA1: LXR agonist reference dosed at 1.0 uM as positive control
Description: III. Quantitative Analysis of ABCA1 Gene Regulation in THP-1 Cells.
The compounds of formula (I) effect on the regulation of the ABCA1 gene was evaluated using the following procedure.
Cell culture: The THP-1 monocytic cell line (ATCC # TIB-202) was obtained from American Type Culture Collection (Manassas, Va.) and cultured in RPMI 1640 medium (Gibco, Carlsbad, Calif.) containing 10% FBS, 2 mM L-glutamine, and 55 uM beta-Mercaptoethanol (BME). Cells were plated in 96-well format at a density of 7.5×10^4 in complete medium containing 50-100 ng/ml phorbal 12,13-dibutyrate (Sigma, St. Louis, Mo.) for three days to induce differentiation into adherent macrophages. Differentiated THP-1 cells were treated with test compounds or ligands dissolved in DMSO (Sigma, D-8779) in culture medium lacking phorbal ester. […] Dose response effects were measured in duplicate, in the range of 0.001 to 30 micromolar concentrations and treated cells were incubated for an additional 18 hrs prior to RNA isolation. Unstimulated cells treated with vehicle were included as negative controls on each plate. An LXR agonist reference, N-(2,2,2-trifluoro-ethyl)-N-[4-(2,2,2-trifluoro-1-hydroxy-1-trifluoromethyl-ethyl)-phenyl]-benzenesulfonamide (Schultz, Joshua R., Genes & Development (2000), 14(22), 2831-2838), was dosed at 1.0 uM and served as a positive control. In antagonist mode, the compound under study is analyzed in the presence of 150 nM GW3965, trifluoromethyl-benzyl)-(2,2-diphenyl-ethyl)-amino]-propoxy]-phenyl)-acetic acid (Collins, J. L., J. Med. Chem. (2000), 45:1963-1966.). Results of antagonist analysis are expressed as % antagonism and IC50 (in μM). RNA isolation and quantitation: Total cellular RNA was isolated from treated cells cultured in 96-well plates using PrepStation 6100 (Applied Biosystems, Foster City, Calif.), according to the manufacturer's recommendations. RNA was resuspended in ribonuclease-free water and stored at −70° C. prior to analysis. RNA concentrations were quantitated with RiboGreen test procedure, #R-11490 (Molecular Probes, Eugene, Oreg.). Gene expression analysis: Gene-specific mRNA quantitation was performed by real-time PCR with the Perkin Elmer Corp. chemistry on an ABI Prism 7700 Sequence detection system (Applied Biosystems, Foster City, Calif.) according to the manufacturer's instructions. Samples (50-100 ng) of total RNA were assayed in duplicate or triplicate in 50 ul reactions using one-step RT-PCR and the standard curve method to estimate specific mRNA concentrations. Sequences of gene-specific primer and probe sets were designed with Primer Express Software (Applied Biosystems, Foster City, Calif.). The human ABCA1 primer and probe sequences are: forward, […], reverse, […], and probe, 6FAM-[…]-TAMRA. RT and PCR reactions were performed according to PE Applied Biosystem's protocol for Taqman Gold RT-PCR or Qiagen's protocl for Quantitect probe RT-PCR. Relative levels of ABCA1 mRNA are normalized using GAPDH mRNA or 18S rRNA probe/primer sets purchased commercially (Applied Biosystems, Foster City, Calif.).
Mean, standard deviation and statistical significance of duplicate evaluations of RNA samples were assessed using ANOVA, one-way analysis of variance using SAS analysis.

Work on CS(=O)(=O)c1cccc(Oc2cccc(-c3c(Cc4ccccc4)nc4c(C(F)(F)F)ccnn34)c2)c1 [Example 7, 2-Benzyl-3-{3-[3-(methylsulfonyl)phenoxy]phenyl}-8-(trifluoromethyl)imidazo[1,2-b]pyridazine] yielded an IC50 (human LXRβ) of 1.96 nM and an IC50 (human LXRα) of 44 nM.
CCc1nc2c(C(F)(F)F)ccnn2c1-c1cccc(Oc2cccc(S(C)(=O)=O)c2)c1 [Example 8, 2-ethyl-3-{3-[3-(methylsulfonyl)phenoxy]phenyl}-8-(trifluoromethyl)imidazo[1,2-b]pyridazine] was tested, and the EC50 (ABCA1 gene) was 1850 nM, the “Agonism ABCA1” value (ABCA1 gene) was 85% and the IC50 (human LXRβ) was 133 nM. The IC50 (human LXRα) was 2040 nM.
In the case of CCc1nc2c(C(F)(F)F)ccnn2c1-c1cccc(Oc2cccc(S(=O)(=O)CC)c2)c1 [Example 9, 2-Ethyl-3-{3-[3-(ethylsulfonyl)phenoxy]phenyl}-8-(trifluoromethyl)imidazo[1,2-b]pyridazine], the IC50 (human LXRβ) is reported as 148 nM and the IC50 (human LXRα) is reported as 1570 nM.
In the case of CC(C)c1nc2c(C(F)(F)F)ccnn2c1-c1cccc(Oc2cccc(S(C)(=O)=O)c2)c1 [Example 10, 2-isopropyl-3-{3-[3-(methylsulfonyl)phenoxy]phenyl}-8-(trifluoromethyl)imidazo[1,2-b]pyridazine], the EC50 (ABCA1 gene) is reported as 1840 nM, the “Agonism ABCA1” value (ABCA1 gene) is reported as 81% and the IC50 (human LXRβ) is reported as 99 nM. It also gave an IC50 (human LXRα) of 1460 nM.
For CCS(=O)(=O)c1cccc(Oc2cccc(-c3c(C(C)C)nc4c(C(F)(F)F)ccnn34)c2)c1 [Example 11, 3-{3-[3-(ethylsulfonyl)phenoxy]phenyl}-2-isopropyl-8-(trifluoromethyl)imidazo[1,2-b]pyridazine], the EC50 (ABCA1 gene) was 2050 nM, the “Agonism ABCA1” value (ABCA1 gene) was 92% and the IC50 (human LXRβ) was 117 nM. For the same molecule, the IC50 (human LXRα) was 1090 nM.
